The target in the assay is T1, Human IDO (Homo sapiens, UniProt P14902).
T1 construct: High control is Hela cells with IFNγ treatment; endogenous in cells; host or cells: HeLa cells treated with 25 ng/ml IFNγ
T1 sequence (P14902 whole entry): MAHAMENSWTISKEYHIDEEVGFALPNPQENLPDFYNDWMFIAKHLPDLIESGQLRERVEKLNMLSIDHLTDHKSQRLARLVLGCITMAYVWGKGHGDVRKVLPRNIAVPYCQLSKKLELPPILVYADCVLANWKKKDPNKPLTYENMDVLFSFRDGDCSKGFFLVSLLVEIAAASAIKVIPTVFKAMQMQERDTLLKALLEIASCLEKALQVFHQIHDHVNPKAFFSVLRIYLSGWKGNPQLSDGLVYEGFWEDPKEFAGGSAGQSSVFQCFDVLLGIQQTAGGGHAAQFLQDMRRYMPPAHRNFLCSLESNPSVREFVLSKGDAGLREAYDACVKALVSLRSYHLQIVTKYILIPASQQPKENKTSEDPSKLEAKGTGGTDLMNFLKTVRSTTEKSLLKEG
The assay can be described thus: HeLa cell IDO assay (IFNγ-treated cells, N-formylkynurenine by RapidFire/MS/MS). Format: cell-based. The conditions noted are these: 25 ng/ml IFNγ, 200 μM Trp, 48 hours, class symbol.
In the case of `O=C(Nc1ccc(Cl)cc1)C1CC12CCN(c1ccnc3ccc(F)cc13)CC2` (single isomer, unassigned) [Compound 12-6, N-(4-chlorophenyl)-6-(6-fluoroquinolin-4-yl)-6-azaspiro[2.5]octane-1-carboxamide], the IC50 (in general, the concentration that gives 50% inhibition) was below 100 nM. The value for `O=C(Nc1ccc(Cl)cc1)C1CC12CCN(c1ccnc3ccc(F)cc13)CC2` (single isomer, unassigned) [Compound 12-7, N-(4-chlorophenyl)-6-(6-fluoroquinolin-4-yl)-6-azaspiro[2.5]octane-1-carboxamide] was above 1000 nM; that for `O=C(Nc1ccc(Cl)cc1)C1CC2(CCC(c3ccnc4ccc(F)cc34)CC2)C1` (single isomer, unassigned) [Compound 16-7, N-(4-chlorophenyl)-7-(6-fluoroquinolin-4-yl)spiro[3.5]nonane-2-carboxamide] was below 100 nM; that for `O=C(Nc1ccc(Cl)cc1)C1CC2(CCC(c3ccnc4ccc(F)cc34)CC2)C1` (single isomer, unassigned) [Compound 16-8, N-(4-chlorophenyl)-7-(6-fluoroquinolin-4-yl)spiro[3.5]nonane-2-carboxamide] was above 1000 nM. To `O=C(NC1CC2(CCC(c3ccnc4ccc(F)cc34)CC2)C1)c1ccc(Cl)cc1` (single isomer, unassigned) [Compound 17-6, 4-chloro-N-(7-(6-fluoroquinolin-4-yl)spiro[3.5]nonan-2-yl)benzamide] belongs below 100 nM; to `O=C(NC1CC2(CCC(c3ccnc4ccc(F)cc34)CC2)C1)c1ccc(Cl)cc1` (single isomer, unassigned) [Compound 17-7, 4-chloro-N-(7-(6-fluoroquinolin-4-yl)spiro[3.5]nonan-2-yl)benzamide], 100 to 1000 nM. To `O=C(Nc1ccc(Cl)cc1)C1CC2(CCC(c3ccnc4ccncc34)CC2)C1` (single isomer, unassigned) [Compound 20-8, N-(4-chlorophenyl)-7-(1,6-naphthyridin-4-yl)spiro[3.5]nonane-2-carboxamide] belongs below 100 nM; to `O=C(Nc1ccc(Cl)cc1)C1CC2(CCC(c3ccnc4ccncc34)CC2)C1` (single isomer, unassigned) [Compound 20-9, N-(4-chlorophenyl)-7-(1,6-naphthyridin-4-yl)spiro[3.5]nonane-2-carboxamide], above 1000 nM. `O=C(N[C@H]1CC2(CC[C@H](c3ccnc4ccncc43)CC2)C1)c1ccc(Cl)cc1` (single isomer, unassigned) [Compound 21-4] registered a 50% inhibitory concentration (IC50) below 100 nM. The value for `O=C(N[C@H]1CC2(CC[C@H](c3ccnc4ccncc43)CC2)C1)c1ccc(Cl)cc1` (single isomer, unassigned) [Compound 21-5] was above 1000 nM. The value for `O=C(Nc1ccc(C(F)(F)F)cn1)[C@H]1C[C@]12CC[C@H](c1ccnc3ccc(F)cc31)CC2` (stereo in doubt) [Compound 3-2, 6-(6-fluoroquinolin-4-yl)-N-(5-(trifluoromethyl)pyridin-2-yl)spiro[2.5]octane-1-carboxamide] was above 1000 nM. Consider `O=C(Nc1ccc(Cl)cc1)C1CC12CCC(c1ccnc3ccc(F)cc13)CC2` (stereo not drawn) [Compound 1-9, N-(4-chlorophenyl)-6-(6-fluoroquinolin-4-yl)spiro[2.5]octane-1-carboxamide], for which the IC50 was below 100 nM. With `O=C(Nc1ccc(F)cc1)[C@H]1C[C@]12CC[C@H](c1ccnc3ccc(F)cc31)CC2` [Compound 1-12], the IC50 is below 100 nM.

Regarding `O=C(Nc1ccc(C2CC2)cc1)[C@H]1C[C@]12CC[C@H](c1ccnc3ccc(F)cc31)CC2` [Compound 1-13], the half-maximal inhibitory concentration (IC50) was 100 to 1000 nM. `Cc1ccc(NC(=O)[C@H]2C[C@]23CC[C@H](c2ccnc4ccc(F)cc42)CC3)cc1` [Compound 1-14]: the IC50 is below 100 nM. The value for `O=C(Nc1cccc(Cl)c1)[C@H]1C[C@]12CC[C@H](c1ccnc3ccc(F)cc31)CC2` [Compound 1-15] was 100 to 1000 nM. To `O=C(Nc1ccccc1F)[C@H]1C[C@]12CC[C@H](c1ccnc3ccc(F)cc31)CC2` [Compound 1-16] belongs 100 to 1000 nM; to `O=C(Nc1cccc(C(F)(F)F)c1)[C@H]1C[C@]12CC[C@H](c1ccnc3ccc(F)cc31)CC2` [Compound 1-17], above 1000 nM.

In turn, `O=C(NN1CCCCC1)[C@H]1C[C@]12CC[C@H](c1ccnc3ccc(F)cc31)CC2` [Compound 1-18] displayed an IC50 above 1000 nM.

In the case of `O=C(Nc1ccc(Cl)c(F)c1)[C@H]1C[C@]12CC[C@H](c1ccnc3ccc(F)cc31)CC2` [Compound 1-19], the IC50 was below 100 nM. Turning to `O=C([C@H]1C[C@]12CC[C@H](c1ccnc3ccc(F)cc31)CC2)N1CCC(C(F)(F)F)CC1` [Compound 1-20], the IC50 is above 1000 nM.

Consider `O=C(NCc1ccc(Cl)cc1)[C@H]1C[C@]12CC[C@H](c1ccnc3ccc(F)cc31)CC2` [Compound 1-21], for which the IC50 was above 1000 nM.

Regarding `O=C(Nc1ccc(-n2cccn2)cc1)[C@H]1C[C@]12CC[C@H](c1ccnc3ccc(F)cc31)CC2` [Compound 1-22], the IC50 fell in the range of 100 to 1000 nM. The value for `O=C(Nc1ccc(Cl)nc1)[C@H]1C[C@]12CC[C@H](c1ccnc3ccc(F)cc31)CC2` [Compound 1-23] was below 100 nM; that for `N#Cc1ccc(NC(=O)C2CC23CCC(c2ccnc4ccc(F)cc24)CC3)cc1` (stereo not drawn) [Compound 2-1, N-(4-cyanophenyl)-6-(6-fluoroquinolin-4-yl)spiro[2.5]octane-1-carboxamide] was below 100 nM. The value for `O=C(Nc1ccccc1Cl)[C@H]1C[C@]12CC[C@H](c1ccnc3ccc(F)cc31)CC2` [Compound 2-2] was above 1000 nM; that for `O=C(Nc1ccc(Cl)cn1)[C@H]1C[C@]12CC[C@H](c1ccnc3ccc(F)cc31)CC2` [Compound 2-3] was 100 to 1000 nM. Compound `O=C(Nc1ccc(C(F)(F)F)cc1)[C@H]1C[C@]12CC[C@H](c1ccnc3ccc(F)cc31)CC2` [Compound 2-4] yielded an IC50 of 100 to 1000 nM.

Take `O=C(Nc1ccc(Cl)cc1F)[C@H]1C[C@]12CC[C@H](c1ccnc3ccc(F)cc31)CC2` [Compound 2-5]: the IC50 was below 100 nM. The value for `O=C(Nc1ccc(F)cn1)[C@H]1C[C@]12CC[C@H](c1ccnc3ccc(F)cc31)CC2` [Compound 2-6] was below 100 nM.

Take `N#Cc1ccc(NC(=O)[C@H]2C[C@]23CC[C@H](c2ccnc4ccc(F)cc42)CC3)nc1` [Compound 3-3]: the concentration for half-maximal inhibition (IC50) was 100 to 1000 nM. Compound `O=C(Nc1ccc(Cl)cc1)C1CC12CCC(c1ccnc3ccc(F)cc13)CC2` (stereo not drawn) [Compound 5-4, N-(4-chlorophenyl)-6-(6-fluoroquinolin-4-yl)spiro[2.5]octane-1-carboxamide] registered an IC50 of 100 to 1000 nM. For the compound `O=C(Nc1ccc(Cl)cc1)[C@H]1C[C@]12CC[C@H](c1ccnc3ccc(Cl)cc31)CC2` [Compound 8-4A], the concentration for half-maximal inhibition (IC50) is below 100 nM. To `N#Cc1ccc2nccc([C@H]3CC[C@@]4(CC3)C[C@@H]4C(=O)Nc3ccc(Cl)cc3)c2c1` [Compound 8-4B] belongs below 100 nM; to `COc1cc2nccc([C@H]3CC[C@@]4(CC3)C[C@@H]4C(=O)Nc3ccc(Cl)cc3)c2cc1OC` [Compound 8-4C], below 100 nM; to `COc1ccc2nccc([C@H]3CC[C@@]4(CC3)C[C@@H]4C(=O)Nc3ccc(Cl)cc3)c2c1` [Compound 8-4D], 100 to 1000 nM. To `COc1ccc2ncnc([C@H]3CC[C@@]4(CC3)C[C@@H]4C(=O)Nc3ccc(Cl)cc3)c2c1` [Compound 8-4E] belongs 100 to 1000 nM; to `COc1cc2nccc([C@H]3CC[C@@]4(CC3)C[C@@H]4C(=O)Nc3ccc(Cl)cc3)c2cn1` [Compound 8-4F], below 100 nM. For `O=C(Nc1ccc(Cl)cc1)C1(F)CC12CCC(c1ccnc3ccc(F)cc13)CC2` (stereo not drawn) [Compound 10-4, N-(4-chlorophenyl)-1-fluoro-6-(6-fluoroquinolin-4-yl)spiro[2.5]octane-1-carboxamide], the half-maximal inhibitory concentration (IC50) lay within 100 to 1000 nM. To `O=C(NC1CC12CCN(c1ccnc3ccc(F)cc13)CC2)c1ccc(Cl)cc1` (stereo not drawn) [Compound 13-3, 4-chloro-N-(6-(6-fluoroquinolin-4-yl)-6-azaspiro[2.5]octan-1-yl)benzamide] belongs 100 to 1000 nM. The value for `O=C(NC1CCC12CCC(c1ccnc3ccc(F)cc13)CC2)c1ccc(Cl)cc1` (stereo not drawn) [Compound 14-7, 4-chloro-N-(7-(6-fluoroquinolin-4-yl)spiro[3.5]nonan-1-yl)benzamide] was above 1000 nM; that for `O=C(Nc1ccc(Cl)cc1)C1CCC12CCC(c1ccnc3ccc(F)cc13)CC2` (stereo not drawn) [Compound 15-3, N-(4-chlorophenyl)-7-(6-fluoroquinolin-4-yl)spiro[3.5]nonane-1-carboxamide] was above 1000 nM. To `N#Cc1ccc(C(=O)N[C@H]2CC3(CC[C@H](c4ccnc5ccc(F)cc54)CC3)C2)cc1` (stereo partly drawn) [Compound 17-8] belongs below 100 nM. In turn, `O=C(N[C@H]1CC2(CC[C@H](c3ccnc4ccc(F)cc43)CC2)C1)c1ccncc1` (stereo partly drawn) [Compound 17-9] yielded an IC50 of 100 to 1000 nM. The value for `O=C(NC1CC2(CCN(c3ccnc4ccc(F)cc34)CC2)C1)c1ccc(Cl)cc1` [Compound 18-5, 4-chloro-N-(7-(6-fluoroquinolin-4-yl)-7-azaspiro[3.5]nonan-2-yl)benzamide] was below 100 nM; that for `O=C(Nc1ccc(Cl)cc1)C1CC2(CCN(c3ccnc4ccc(F)cc34)CC2)C1` [Compound 19-3, N-(4-chlorophenyl)-7-(6-fluoroquinolin-4-yl)-7-azaspiro[3.5]nonane-2-carboxamide] was 100 to 1000 nM.

Regarding `O=C(NC1CC2(CCN(c3ccnc4ccncc34)CC2)C1)c1ccc(Cl)cc1` [Compound 22-5, N-(7-(1,6-naphthyridin-4-yl)-7-azaspiro[3.5]nonan-2-yl)-4-chlorobenzamide], the 50% inhibitory concentration (IC50) is above 1000 nM. To `O=C(NC1(C2CCC(c3ccnc4ccc(F)cc34)CC2)CC1)c1ccc(Cl)cc1` (stereo not drawn) [Compound 23-5A, 4-chloro-N-(1-(4-(6-fluoroquinolin-4-yl)cyclohexyl)cyclopropyl)-benzamide] belongs below 100 nM.

(Values after patent publication US11180497B2 (ANGEX PHARMACEUTICAL, INC., priority 2017, dated 2021).)
